Literature values in PMC9099121, “Population pharmacokinetic and exposure‐response analyses from ALTA‐1L: Model‐based analyses supporting the brigatinib dose in ALK‐positive NSCLC” (Clinical and Translational Science, 2022).

Test system: ALK-rearranged advanced NSCLC
Set-up: method as in PMID 31020351
Details: time-dependent exposure metric; 95% CI: 0.92–1.17; nonsignificant; cited from earlier work

Cc1cc(Nc2ncc(Cl)c(Nc3ccccc3S(=O)(=O)C(C)C)n2)c(OC(C)C)cc1C1CCNCC1 [ceritinib]
HR, exposure versus risk of disease progression: 1.04
